Tests used:
Nrf2 mRNA = assay: Nrf2 transcript degradation after siRNA transfection, real time TAQMAN PCR; assay type: cell-based, human; settings: A549; for relative potency among the Nrf2 siRNA duplexes: Nrf2 transcript, 24 and 48 hours
Experimental: To study the degradation of Nrf2 mRNA with siRNA in a time dependent manner, a pooled mixture of the generated duplexes were transfected into A549 human non-small cell lung carcinoma cell line. As a control, a non-specific scrambled siRNA duplex (SC) was used. Transfection vehicle alone was also used as control. Total RNA was isolated after 24, 48 and 72 hours. The amount of Nrf2 transcript was measured using real time TAQMAN PCR. […] These five ND duplexes were again screened using the same assay to measure amount of Nrf2 transcript as described above.
Total RNA was extracted from lung tissues and or cells using RNeasy kit (Qiagen, Valencia Calif.) and was quantified by UV absorbance spectrophotometry. The reverse transcription reaction was performed by using the Superscript First Strand Synthesis system (Invitrogen, Carlsbad Calif.) in a final volume of 20 μl containing 2 μg of total RNA, 100 ng of random hexamers, 1× reverse transcription buffer, 2.5 mM MgCl2, 1 mM dNTP, 10 units of RNaseOUT, 20 units of Superscript reverse transcriptase, and DEPC-treated water. Quantitative real time RT-PCR analyses of Human KEAP1, NRF2, GCLc, GCLm, GSR, PRDX1, GSTA3, GSTA2, NQO1, MRP1 and MRP2 were performed by using assay on demand primers and probe sets from Applied Biosystems. Assays were performed by using the ABI 7000 Taqman system (Applied Biosystems, Foster City Calif.). β-ACTIN was used for normalization.
The siRNA sequence targeting NRF2 corresponds to the coding region 1903-1921 nt (5′-[…]-3′; SEQ ID NO:27) in the NRF2 cDNA. The NRF2 siRNA duplex with the following sense and antisense sequences was used: 5′-GUAAGAAGCCAGAUGUUAAdUdU (sense; SEQ ID NO:50) and dUd[…]-5′ (antisense; SEQ ID NO:28). To confirm the specificity of the inhibition, the siCONTROL non-targeting siRNA 1 (NS siRNA; 5′[…] 3′; SEQ ID NO:29) with microarray-defined signature was used as a negative control. All of the siRNA duplexes were synthesized by Dharmacon Research, Inc. (Lafayette). Cells in the exponential growth phase were plated at a density of 0.2×10^6 cells/ml, grown for 12 h, and transfected twice at an interval of 48 h with 50 nM siRNA duplexes using Lipofectamine 2000 and OPTI-MEMI reduced serum medium (Invitrogen, Carlsbad Calif.) according to the manufacturer's recommendations. Concentrations of siRNAs were chosen on the basis of dose-response studies.

Nrf2 = assay: ARE-luciferase transcriptional reporter assay; assay type: cell-based, mice; settings: Hepa cells stably transfected with pARE-luc; 5, 10, 50 μM
Experimental: In this example, a high throughput approach to screen different chemicals for their potency to inhibit Nrf2 activation is described. A cell based transcriptional reporter assay approach was used for the identification of agents that inhibit Nrf2 mediated transcription. Hepa cells, which are mice liver carcinoma cells, were stably transfected with the ARE-luciferase reporter vector, and plated on to 96 or […] well plates. After overnight incubation, the cells were pretreated for 1-3 hours with different compounds, and challenged with a known Nrf2 activator, sulforaphane and dibenzoylmethane (DBM). Luciferase activity was measured after 6 hours following the last treatment using a commercially available system.

[1] = test system: Renca renal carcinoma cells; assay: cells; assay type: cell-based
Excerpt: The effect of Nrf2 siRNA on the killing of Renca renal carcinoma cells was examined using etoposide, another widely used anticancer drug. To generate stable Renca cell lines that over-expressed Nrf2 siRNA and non-specific scramble siRNA (SC siRNA), the siRNA sequence was converted into short hairpin RNA (shRNA) and cloned in to a BLOCK-IT U6 RNAi Entry Vector (Invitrogen). The shRNA construct was packaged into a lentiviral vector, and transduced into Renca cell lines. Recombinants were selected with antibiotic. Renca cells stably expressing Nrf2 siRNA and non-specific LacZ siRNA were screened, and two clones expressing Nrf2 siRNA showing maximum knockdown of Nrf2 message were selected for further characterization. A cell viability assay was performed using these clones using etoposide as the chemotherapeutic drug. […] Cell viability was measured using the MTT [3-(4,5-dimethylthiazol-2-yl)-2,5-diphenyltetrazolium bromide] assay after 48 hours. Briefly, cells were transfected with 50 nM siRNAs two times within a 48 h interval and, 24 hours after the second transfection, cells were plated at a density of 7,500 cells/well in 180 μl of growth media in 96-well plates. […] After 96 h, drug cytotoxicity was evaluated by using a 3-(4,5-dimethylthiazol-2-yl)-2,5-diphenyl tetrazolium bromide (MTT; Sigma) reduction conversion assay. […]

“ND1: siRNA duplex, Nrf2 mRNA (NM_006164) position 1686-1704; sense SEQ ID NO: 1 CUAGAGCAAGAUUUAGAUCUU, antisense SEQ ID NO: 5 (antisense GAUCUAAAUCUUGCUCUAGUU; listed as RNA, chemistry not given here)” was tested, and the “relative potency among the Nrf2 siRNA duplexes” value (Nrf2 mRNA) was “most potent”.
For `C[S+]([O-])CCCCN=C=S` (stereo not drawn) [sulforaphane], the luciferase activity (Nrf2) was “increase in luciferase activity”.
With “ND5: siRNA duplex, Nrf2 mRNA position 1485-1463; antisense SEQ ID NO: 4 UUCAUCUCUUGUGAGAUGAGCCUCC, sense SEQ ID NO: 8 (sense GGAGGCUCAUCUCACAGAGAUGAA; listed as RNA, chemistry not given here)” the “relative potency among the Nrf2 siRNA duplexes” value (Nrf2 mRNA) was “most potent”.
With “ND3: siRNA duplex, Nrf2 mRNA position 1903-1921; sense SEQ ID NO: 2 GUAAGAAGCCAGAUGUUAAUU, antisense SEQ ID NO: 6 (antisense UUAACAUCUGGCUUCUUACUU; listed as RNA, chemistry not given here)” the “relative potency among the Nrf2 siRNA duplexes” value (Nrf2 mRNA) was “most potent” and the “degradation of Nrf2 message” value (Nrf2 mRNA; after 24 and 48 hours, individual duplexes) was “maximum message degradation”.
In the case of “ND4: siRNA duplex, Nrf2 mRNA position 1563-1581; sense SEQ ID NO: 3 AUGAUGUCCAAAGAGCAGUUU, antisense SEQ ID NO: 7 (antisense ACUGCUCUUUGGACAUCAUUU; listed as RNA, chemistry not given here)”, the “relative potency among the Nrf2 siRNA duplexes” value (Nrf2 mRNA) is reported as “most potent”.
For `O=C(CC(=O)c1ccccc1)c1ccccc1` [dibenzoylmethane], the luciferase activity (Nrf2) was “increase in luciferase activity”.
Work on `COc1cc([C@@H]2c3cc4c(cc3[C@@H](O[C@@H]3O[C@@H]5CO[C@@H](C)O[C@H]5[C@H](O)[C@H]3O)[C@H]3COC(=O)[C@H]23)OCO4)cc(OC)c1O` [Etoposide, etoposide] yielded a viability at 250 µM ([1]; Renca, read-out: viable cells) of roughly 100% and a viability ([1]; mouse, 48 h, 250 μM) of −60%.

Source: patent US8216777B2, “Compositions and methods for the treatment or prevention of chemoresistant neoplasia” (The Johns Hopkins University, priority 2006, dated 2012)
